According to patent publication US6369109B1, “Betulinic acid and derivatives thereof useful for the treatment of neuroectodermal tumor” (Deutsches Krebsforschungszentrum Stiftung des Offentlichen …, priority 1998, dated 2002):

Tests used:
[1] = test system: CD95-L and CD95 in SHEP cells transfected with Bcl-2, Bcl-XL or Neo; assay: Induction of CD95-L and CD95 (RT-PCR, Western blot, FACS); format: cell-based, human; details: 0.5 μg/ml Doxo or 10 μg/ml betulinic acid, 24 h, Bcl-2 or Bcl-XL cells, FIG. 13
Method: Cells were stained with anti-APO-1 (CD95) IgGl monoclonal antibody (moab) (1 μg/ml; Trauth et al., 1989, Science 245:301-305) for 45 minutes at 4° C. followed by goat anti-mouse IgG-FITC (Immunotech, Hamburg, Germany) for 30 minutes at 4° C. FII23 IgGl antibody was used as an isotype matched non-binding antibody to control unspecific binding.
Total RNA was prepared using the Qiagen total RNA kit (Qiagen, Hilden, Germany). RNA was converted to cDNA by reverse transcription and amplified for 38 cycles by PCR in a thermocycler (Stratagene, Heidelberg, Germany) using the Gene Amplification RNA-PCR kit (Perkin Elmer, Branchburg, N.J.) following the manufacturer's instructions. A 500-base pair fragment of CD95-L was amplified using primer 5′[…]3′ (SEQ ID:No 1) and 5′[…]3′ (SEQ ID NO:2) and a 311-base pair fragment of CD95 was amplified using primer 5′[…] […]
CD95-L mRNA expression was determined by RT-PCR. […] CD95-L protein was detected as a Mr 37,000 band by mouse anti-CD9S-L moab and enhanced chemiluminescence.
SHEP cells transfected with Bcl-2 or Bcl-XL or a neomycin resistance vector only (Neo) were treated (Lanes+) with 0.5 μg/ml Doxo or 10 μg/ml Bet A for 24 h. CD95 mRNA expression was determined by RT-PCR. […] For FACS analysis of CD95 protein expression (C), cells were stained with mouse anti-APO-1 moab followed Dy FITC-conjugated antimouse IgG antibody and analyzed by flow cytometry. […]

[2] = test system: cytochrome c in SHEP cells; assay: Drug-induced release of cyt c from mitochondria in cells (Western blot); format: cell-based, human; details: 0.5 μg/ml Doxo or 10 μg/ml Bet A; FIG. 16A
Method: Cells were lysed for 30 mm at 4° C. in PBS with 0.5% Triton X (Serva, Heidelberg, Germany) and 1 mM PMSF (Sigma, Deisenhofen, Germany) followed by high-speed centrifugation. Membrane proteins were eluted in buffer containing 0.1 M glycine, pH 3.0 and 1.5 M Tris, pH 8.8. Protein concentration was assayed using bicinchoninic acid (Pierce, Rockford, Ill.). 40 μg protein per lane was separated by 12% or 15% SDS-PAGE and electroblotted onto nitrocellulose (Amersham, Braunschweig, Germany). Equal protein loading was controlled by Ponceau red staining of membranes. […]
For isolation of mitochondria, cells (3×10^8 per sample) were washed twice with ice-cold PBS and resuspended with five volumes of buffer A (50 mM Tris buffer, 1 mM EGTA, 5 mM 2-mercaptoethanol, 0.2% BSA, 10 mM KH2PO4, pH 7.6, 0.4 M sucrose) and allowed to swell on ice for 20 min. […] The protein concentration of mitochondria or cytosolic extracts was determined by the Bradford method. […]

Question: How did the “induction of CD95-L and CD95” value [1] turn out when COc1cccc2c1C(=O)c1c(O)c3c(c(O)c1C2=O)C[C@@](O)(C(=O)CO)C[C@@H]3O[C@H]1C[C@H](N)[C@H](O)[C@H](C)O1 [doxorubicin] was run?
Answer: The value was “Both CD95-L and CD95 were induced at the mRNA and protein level”.

Question: What about the “mitochondrial cytochrome c levels after stimulation” value [2] of the same molecule?
Answer: The value was “mitochondrial cytochrome c levels declined”.
